For 32 molecules, Ki results are on record in patent US11034692B1 (Genentech, Inc., priority 2017, dated 2021).

In this experiment the target is HPK1. Kind of experiment: HPK1 Lantha Binding Assay ("Lanth"). Particulars: Table B1-1, read-out: HPK1 Ki (μM) (Lanth). The protocol: HPK1 Lantha Binding Assay (“Lanth”)
The compounds to be tested were diluted by preparing 12.5 uL/well of 5 mM compound (100×) in columns 2 and 13 and 10 ul/well of DMSO in columns 3-12, 14-23, and wells A1-H1 and I24-P24 of the compound plate using a Bravo liquid handling platform. For the reference compound, the top concentration was 1 mM. To the plate was added 10 ul 2 mM staurosporine in wells J1-P1 and A24-H24. A 11 point 5-fold compound serial dilution was performed using the Bravo liquid handling platform. From the plate were transferred 2.5 ul of the solutions from column 2 and column 13 to the 10 ul of DMSO in columns 3 and 14 & so on. The compound plate was centrifuged at 2500 rpm for 1 min. From the compound plate was transferred 80 nl of the compounds into an assay plate using the Echo liquid handler system. One compound plate makes two assay plates. Each assay plate is sealed and stored in an N2 cabinet.
The following assay concentrations and times were used: 2 nM HPK1, 2 nM Eu-Anti-GST Ab, and 15 nM Tracer222, with 60 min incubation time.
III. HPK Lantha Binding Assay:
For the binding assay, 4 ul 2×HPK1 and Eu-anti-GST antibody were added to each well of the assay plate using a Multidrop reagent dispenser. The solutions were incubated in a 23 C incubator for 1 h. To each well of the assay plate was added 4 ul 2× Tracer-222 using a Multidrop reagent dispenser. The solutions were again incubated in a 23 C incubator for 1 h. The results of the assay were read using an Envision plate reader with the following parameters: TR_FRET, 340ex/615 and 665em; 100 usec Delay; and 200 usec integration.
Compound Ki was analyzed using Morrison ki fit model in XL-fit • a. fit=(1−((((E+x)+(Ki*(1+(S/Kd))))−(((((E+x)+(Ki*(1+(S/Kd))))[…])−((4*E)*x))^0.5))/(2*E))) • res=(y-fit) • b. Parameters: • E=enzyme concentration • S=Tracer222 concentration, Kd=Tracer222 Kd • All measurements reported using the same units (uM)
Exemplary compounds of Formula I or Ia were tested in the binding assays. The Ki data in Table B1-1 are based on the “Lanth” assay.
In general, Ki refers to a dissociation constant, usually derived from enzyme kinetics or from competition with a known ligand. As for `Nc1nc(N2CCOC2=O)cc2cc(NC(=O)C3CC3)ncc12` [Compound 40, N-(8-amino-6-(2-oxooxazolidin-3-yl)-2,7-naphthyridin-3-yl)cyclopropanecarboxamide], the Ki was found to be 0.098 µM.

In the case of `Nc1nc(-c2cnccc2CO)cc2cc(NC(=O)[C@@H]3C[C@@H]3F)ncc12` [Compound 44, (1S,2S)—N-(8-amino-6-(4-(hydroxymethyl)pyridin-3-yl)-2,7-naphthyridin-3-yl)-2-fluorocyclopropanecarboxamide], the Ki turned out to be 0.048 µM.

Consider `CCc1ccncc1-c1cc2cc(NC(=O)OCc3ccccc3)ncc2c(N)n1` [Compound 57, Benzyl 8-amino-6-(4-ethylpyridin-3-yl)-2,7-naphthyridin-3-ylcarbamate], for which the Ki was determined as 0.00524 µM.

As to `CCc1ccncc1-c1cc2cc(NC(=O)N[C@@H]3CCN(C)C3=O)ncc2c(N)n1` [Compound 65, (R)-1-(8-amino-6-(4-ethylpyridin-3-yl)-2,7-naphthyridin-3-yl)-3-(1-methyl-2-oxopyrrolidin-3-yl)urea], the Ki came out at 0.00547 µM.

Take `CCc1ccncc1-c1cc2cc(NC(=O)C3=CC3)ncc2c(N)n1` [Compound 68, N-[8-amino-6-(4-ethyl-3-pyridyl)-2,7-naphthyridin-3-yl]cyclopropene-1-carboxamide]: the Ki amounted to 0.545 µM.

On to `CCc1ccncc1-c1cc2cc(NC(=O)c3cc(C)[nH]n3)ncc2c(N)n1` [Compound 70, 5-Methyl-1H-pyrazole-3-carboxylic acid [8-amino-6-(4-ethylpyridin-3-yl)-[2,7]naphthyridin-3-yl]amide], for which the Ki worked out at 0.0276 µM.

For `CCc1ccncc1-c1cc2cc(NC(=O)c3cc[nH]n3)ncc2c(N)n1` [Compound 71, 2H-Pyrazole-3-carboxylic acid [8-amino-6-(4-ethylpyridin-3-yl)-[2,7]naphthyridin-3-yl]amide], the Ki is 0.01 µM.

Turning to `CCc1ccncc1-c1cc2cc(NC(=O)c3ccnn3C)ncc2c(N)n1` [Compound 72, 2-Methyl-2H-pyrazole-3-carboxylic acid [8-amino-6-(4-ethylpyridin-3-yl)-[2,7]naphthyridin-3-yl]amide], the Ki amounted to 0.0141 µM.

`CCc1ccncc1-c1cc2cc(NC(=O)c3cnn(C)c3)ncc2c(N)n1` [Compound 73, 1-Methyl-1H-pyrazole-4-carboxylic acid [8-amino-6-(4-ethylpyridin-3-yl)-[2,7]naphthyridin-3-yl]amide]: the Ki was 0.0134 µM.

`CCc1ccncc1-c1cc2cc(Nc3cnn(C)c3)ncc2c(N)n1` [Compound 74, 3-(4-Ethylpyridin-3-yl)-N6-(1-methyl-1H-pyrazol-4-yl)-[2,7]naphthyridine-1,6-diamine]: the Ki was 0.0013 µM.

In the case of `CCc1ccncc1-c1cc2cc(Nc3cn[nH]c3)ncc2c(N)n1` [Compound 75, 3-(4-Ethylpyridin-3-yl)-N6-(1H-pyrazol-4-yl)-[2,7]naphthyridine-1,6-diamine], the Ki was found to be 0.0008 µM.

`CCc1ccncc1-c1cc2cc(Nc3ccn(C)n3)ncc2c(N)n1` [Compound 76, 3-(4-Ethylpyridin-3-yl)-N6-(1-methyl-1H-pyrazol-3-yl)-[2,7]naphthyridine-1,6-diamine]: the Ki was 0.0013 µM.

Consider `CCc1ccncc1-c1cc2cc(Nc3cc[nH]n3)ncc2c(N)n1` [Compound 77, 3-(4-Ethylpyridin-3-yl)-N6-(1H-pyrazol-3-yl)-[2,7]naphthyridine-1,6-diamine], for which the Ki came out at 0.0006 µM.

Consider `CCc1ccncc1-c1cc2cc(Nc3cnn(C4CCNCC4)c3)ncc2c(N)n1` [Compound 78, 3-(4-Ethylpyridin-3-yl)-N6-(1-piperidin-4-yl-1H-pyrazol-4-yl)-[2,7] naphthyridine-1,6-diamine], for which the Ki was 0.0001 µM.

For `CCc1ccncc1-c1cc2cc(NS(=O)(=O)C3CC3)ncc2c(N)n1` [Compound 79, Cyclopropanesulfonic acid [8-amino-6-(4-ethylpyridin-3-yl)-[2,7]naphthyridin-3-yl]amide], the Ki was 0.839 µM.

Turning to `CCc1ccncc1-c1cc2cc(Nc3cc(C)ncn3)ncc2c(N)n1` [Compound 80, 3-(4-Ethylpyridin-3-yl)-N6-(6-methylpyrimidin-4-yl)-[2,7]naphthyridine-1,6-diamine], the Ki amounted to 0.0003 µM.

In the case of `CCc1ccncc1-c1cc2cc(Nc3cc(C(=O)N(C)CC)ccn3)ncc2c(N)n1` [Compound 81, 2-[8-Amino-6-(4-ethylpyridin-3-yl)-[2,7]naphthyridin-3-ylamino]-N-ethyl-N-methylisonicotinamide], the Ki was determined as 0.0003 µM.

As for `CCc1ccncc1-c1cc2cc(Nc3cccc(CO)n3)ncc2c(N)n1` [Compound 83, {6-[8-amino-6-(4-ethylpyridin-3-yl)-[2,7]naphthyridin-3-ylamino]pyridin-2-yl}methanol], the Ki is 0.0003 µM.

For the molecule `CCc1ccncc1-c1cc2cc(NC(=O)c3cnn(C4CCNCC4)c3)ncc2c(N)n1` [Compound 84, 1-Piperidin-4-yl-1H-pyrazole-4-carboxylic acid [8-amino-6-(4-ethylpyridin-3-yl)-[2,7]naphthyridin-3-yl]amide], the Ki worked out at 0.0018 µM.

In the case of `CCc1ccncc1-c1cc2cc(Nc3cnn(CCO)c3)ncc2c(N)n1` [Compound 85, 2-{4-[8-Amino-6-(4-ethylpyridin-3-yl)-[2,7]naphthyridin-3-ylamino]pyrazol-1-yl}ethanol], the Ki was 0.00198 µM.

As to `CCc1ccncc1-c1cc2cc(NC(=O)Cc3ccn[nH]3)ncc2c(N)n1` [Compound 102, N-(8-amino-6-(4-ethylpyridin-3-yl)-2,7-naphthyridin-3-yl)-2-(1H-pyrazol-5-yl)acetamide], the Ki came to 0.0215 µM.

For `CCc1ccncc1-c1cc2cc(NCc3ccn[nH]3)ncc2c(N)n1` [Compound 105, N6-((1H-pyrazol-5-yl)methyl)-3-(4-ethylpyridin-3-yl)-2,7-naphthyridine-1,6-diamine], the Ki is 0.0402 µM.

With `CCc1ccncc1-c1cc2cc(NC(=O)N[C@H]3C[C@@H](O)C3)ncc2c(N)n1` [Compound 109, 1-[8-amino-6-(4-ethyl-3-pyridyl)-2,7-naphthyridin-3-yl]-3-(cis-3-hydroxycyclobutyl)urea], the Ki worked out at 0.0013 µM.

As for `Cc1ccncc1-c1cc2cc(NC(=O)C3C4CNCC43)ncc2c(N)n1` (centres unmarked) [Compound 111, N-[8-amino-6-(4-methyl-3-pyridyl)-2,7-naphthyridin-3-yl]-3-azabicyclo[3.1.0]hexane-6-carboxamide], the Ki is 0.00238 µM.

Turning to `Cc1ccncc1-c1cc2cc(NC(=O)C3CC34CNC4)ncc2c(N)n1` (centres unmarked) [Compound 113, N-[8-amino-6-(4-methyl-3-pyridyl)-2,7-naphthyridin-3-yl]-5-azaspiro[2.3]hexane-2-carboxamide], the Ki worked out at 0.00353 µM.

For `COCCN1C[C@@H]2[C@H](C1)[C@H]2C(=O)Nc1cc2cc(-c3cnccc3C)nc(N)c2cn1` [Compound 124, exo-N-[8-amino-6-(4-methyl-3-pyridyl)-2,7-naphthyridin-3-yl]-3-(2-methoxyethyl)-3-azabicyclo[3.1.0]hexane-6-carboxamide], the Ki was 0.0011 µM.

Consider `Cc1ccncc1-c1cc2cc(NC(=O)O[C@@H]3CCNC3=O)ncc2c(N)n1` [Compound 133], for which the Ki was 0.015 µM.

In the case of `Cc1ccncc1-c1cc2cc(NC(=O)N[C@H]3CCC[C@@H]3O)ncc2c(N)n1` [Compound 134, 1-[8-amino-6-(4-methyl-3-pyridyl)-2,7-naphthyridin-3-yl]-3-[(1S,2S)-2-hydroxycyclopentyl]urea], the inhibition constant (Ki) is 0.0056 µM.

With `CC(=O)N1C[C@@H]2[C@H](C1)[C@H]2C(=O)Nc1cc2cc(-c3cnccc3C)nc(N)c2cn1` [Compound 143, exo-3-acetyl-N-[8-amino-6-(4-methyl-3-pyridyl)-2,7-naphthyridin-3-yl]-3-azabicyclo[3.1.0]hexane-6-carboxamide], the Ki is 0.0059 µM.

For `Cc1ccncc1-c1cc2cc(NC(=O)[C@H]3[C@@H]4CN(S(C)(=O)=O)C[C@@H]43)ncc2c(N)n1` [Compound 151, exo-N-[8-amino-6-(4-methyl-3-pyridyl)-2,7-naphthyridin-3-yl]-3-methylsulfonyl-3-azabicyclo [3.1.0]hexane-6-carboxamide], the Ki came to 0.015 µM.

Take `CC(=O)Nc1cc2c(F)c(-c3cnccc3C)nc(N)c2cn1` [Compound 156, N-(8-amino-5-fluoro-6-(4-methylpyridin-3-yl)-2,7-naphthyridin-3-yl)acetamide]: the Ki was found to be 0.021 µM.

As for `Cc1ccncc1-c1cc2cc(NC(=O)[C@H]3[C@@H]4CNC(=O)[C@@H]43)ncc2c(N)n1` [Compound 158, Exo-N-(8-amino-6-(4-methylpyridin-3-yl)-2,7-naphthyridin-3-yl)-2-oxo-3-azabicyclo[3.1.0]hexane-6-carboxamide], the Ki amounted to 0.0036 µM.
